Source: article PMC2974656, “Selective killing of human immunodeficiency virus infected cells by non-nucleoside reverse transcriptase inhibitor-induced activation of HIV protease” (Retrovirology, 2010)

What was measured:
[1] = system: HIV-1IIIB; assay: Direct antiviral activity: MT4-LTR-EGFP cells infected with HIV-1IIIB, EGFP fluorescence; assay type: cell-based; conditions: Human immunodeficiency virus 1, 72 h, read-out: Inhibition of HIV replication in vitro EC50
Description: After 3 days of incubation, infected cells were quantified by determination of total EGFP fluorescence per well based on microscopy and subsequent image analysis. Threshold values were determined from the average pixel value plus 6 standard deviations from the uninfected control wells, and the median threshold from all control wells on a plate was defined as baseline GFP expression. Intensity values for the sample wells were then determined by subtracting the background threshold from each pixel value obtained from the image of the respective well and calculating the sum of net pixel intensities. Percent inhibition was calculated as 100 * (1 - (Sample - CC)/(VC - CC)).

[2] = system: intracellular Gag processing by HIV PR; assay type: cell-based, HIV-1
Description: In previous studies, high concentrations of NNRTI (5 μM) were required to observe NNRTI mediated activation of intracellular HIV PR activity. […]. Towards this end, we developed a biochemical assay for gel independent quantitation of intracellular Gag processing by HIV PR in the context of a virus producing cell. We had previously shown that additional protein domains, consisting of small epitope tags or even the 27 kDa green fluorescent protein (EGFP), can be inserted between the MA and CA domains of the Gag and Gag-Pol polyproteins without affecting polyprotein production or processing by HIV PR [36]. Based on this, we designed a HIV reporter construct which contained a small N-terminal fragment ('alpha peptide') of Escherichia coli beta-galactosidase (β-Gal), flanked by two HIV PR recognition sites, between the MA and CA coding sequences of Gag (Figure 1A). […] This so called alpha complementation principle can be exploited for use in mammalian cells and has been employed for the establishment of various cell based biochemical assay systems. We reasoned that embedding of the small alpha peptide within the multi-domain polyproteins Gag or Gag-Pol, respectively, should impair its productive association with the omega subunit, while proteolytic release of the alpha peptide from the polyprotein by PR would allow the formation of enzymatically active β-Gal. This should allow us to monitor intracellular Gag and Gag-Pol processing through increased β-Gal activity.
Reconstituted β-Gal activity in cell lysates was measured by cleavage of the chromogenic substrate CPRG [42] as described in Methods.
The activity of β-Gal in cell lysates from transfected 293T cells was measured by enzymatic cleavage of the chromogenic β-Gal substrate chlorphenolred-β-D-galactopyranoside (CPRG, Roche; [42]). At 44 h post transfection, cells were briefly rinsed with PBS and suspended in reporter gene assay lysis buffer (Roche, 600 μl per 6-well dish) supplemented with a protease inhibitor mix (Roche). Cell suspensions were incubated for 10 min at room temperature and cell debris was subsequently removed by brief centrifugation. Five μl of supernatant were diluted in 96-well plates with 95 μl CPRG reaction buffer (50 mM potassium phosphate, pH 7.5, 1 mM MgCl2) and pre-warmed for 5 min to 37°C. 100 μl of pre-warmed reaction mix (100 μM CPRG in CPRG reaction buffer supplemented with protease inhibitor cocktail and 40 μM β-mercaptoethanol) were added and β-Gal mediated cleavage of CPRG was monitored by recording absorption at 592 nm every 2 min for 20 min at 37°C using a TECAN Safire multi-well reader. OD592 values were plotted over time and relative reaction rates (OD592/min) were determined from the initial linear velocities.

[3] = Cytotoxicity on uninfected control cells, EGFP fluorescence per well; assay type: cell-based; conditions: human, MT4-CMV-EGFP control cells (uninfected); 4 days; mean ± SD; tested up to 10 μM; read-out: Cytotoxicity on MT4-CMV-EGFP control cells CC50
Description: (§1) The cytotoxicity of inhibitors was determined in parallel on MT4-CMV-EGFP control cells and on MT4-LTR-EGFP-IIIB virus producing cells, respectively.

[4] = in vitro; assay type: cell-based; conditions: human, 4 days
Description: as §1

[5] = system: MT4-LTR-EGFP-IIIB HIV-1 producing cells; assay: in vitro; assay type: cell-based; conditions: summary of Table 1
Description: as §1

[6] = design: method as in PMID 12545140; conditions: under therapy; cited from earlier work
[7] = system: Gag processing by HIV PR; assay: Immunoblot analysis of Gag processing in transfected 293T cells; assay type: cell-based, HIV-1; conditions: 2 μM LPV
Description: 293T cells were seeded in 6-well plates and transfected with the indicated constructs using FuGene6 (Roche) according to the manufacturer's instructions. Cell lysates and tissue culture supernatants were harvested at 44-48 h post transfection. Virus was purified by ultracentrifugation through a 20% (w/w) sucrose cushion. Cell lysates, tissue culture supernatants or pelleted viral particles were separated by SDS-PAGE (17.5% acrylamide; acrylamide:bisacrylamide 200:1). Proteins were transferred to nitrocellulose by semi-dry blotting and detected using polyclonal antisera raised against recombinant HIV-1 CA or MA, or a commercial antiserum against β-Gal (Abcam, ab616), respectively.

[8] = system: intracellular Gag processing by HIV PR; assay type: cell-based, HIV-1; conditions: 2 μM LPV, 48 h post transfection; DMSO control 0.109 min^-1

| SMILES | EC50 [1] | Gag processing or β-Gal activity, pCHIV.MAα variant with D25A mutation (PR-) ([2]; 5 μM EFV) | β-Gal activity, pCHIV.MAα 2PR (linked PR dimer) ([2]; 5 μM EFV) | β-Gal activity, pCHIV.MAα ([2]; 5 μM EFV, equal amounts of pCHIV.MAα and pCMVω) | Concentration required to achieve the maximal effect on β-Gal activity ([2]; 293T cells, 44 h post transfection) | CC50 at 4 days [3] | CC50 at 4 days ([4]; no DRV, mean ± SD, tested up to 10 μM, read-out: Cytotoxicity on MT4-LTR-EGFP-IIIB HIV-1 producing cells CC50) | CC50 at 4 days ([4]; CC50 on virus producing cells in the absence of DRV, one representative experiment (Fig. 3C), 4 parameter fit) | Cytotoxicity on MT4-LTR-EGFP-IIIB cells, in words [5] | Peak serum levels [6] | β-Gal activity in the cell lysates ([2]; 2 μM LPV, result in words) | Gagα processing as determined by immunoblot [7] | Relative rate of CPRG cleavage [8] |
| --- | --- | --- | --- | --- | --- | --- | --- | --- | --- | --- | --- | --- | --- |
| O=C1Nc2ccc(Cl)cc2[C@@](C#CC2CC2)(C(F)(F)F)O1 [EFV, efavirenz] | 0.0019 ± 0.0009 µM | no increase | No effect | significant increase | ~ 1 μM | > 10 µM | 1.71 ± 0.43 µM | 2.44 µM | less cytotoxic | micromolar range |  |  |  |
| Cc1cccc(C)c1OCC(=O)N[C@@H](Cc1ccccc1)[C@@H](O)C[C@H](Cc1ccccc1)NC(=O)[C@H](C(C)C)N1CCCNC1=O [LPV, lopinavir] |  |  |  |  |  |  |  |  |  |  | reduced, but did not abolish | nearly completely blocked | 0.054 min⁻¹ |
